Assay results taken from patent publication US10301267B2, “Compounds” (AstraZeneca AB, priority 2006, dated 2019).
pIC50: −log10 of the molar value.

Biological target: FGFR1 active kinase (Homo sapiens, UniProt P11362)
Assay: FGFR Kinase assay - Caliper Echo Dosing
Format: biochemical
Details: FGFR1 7.2 nM, 408 uM ATP, acoustic dosing; geometric mean of n
Experimental: FGFR Kinase Assay—Caliper Echo Dosing
To determine inhibition of FGFR activity, kinase assays were conducted using Caliper technology.
Kinase activity assays were performed in Greiner 384-well low volume plates, with a total reaction volume of 12 ul per well. Final concentration of FGFR1 active kinase in each reaction well was 7.2 nM. The substrate for each assay was a custom peptide with fluorescent tag (13 amino acids in length, […] with the fluorescene tag on the first K).
Compounds were dispensed directly in to assay plates using a Labcyte Echo 550 acoustic droplet ejection unit. Each well received 120 nl of DMSO containing compound such that the final concentration of compound in the assay prior to the addition of the stop solution ranged between 30 uM and 30 pM. In addition to compounds each plate carried maximum and minimum control wells, the max wells contained 120 nl of DMSO and the min wells contained 120 nl of 10 mM staurosporine (LC Laboratories, MA 01801, USA Catalogue No. S-9300). The Enzyme (at 7.2 nM [final]) and Substrate (at 3.6 uM [final]) were added separately to the compound plates, in reaction buffer [comprising: 50 mM MOPS (Sigma, Catalogue No. M1254)—pH 6.5, 0.004% Triton (Sigma, Catalogue No. X-100), 2.4 mM DTT, 12 mM MgCl2, 408 uM ATP] resulting in a final DMSO concentration in the reaction mix of 1%.
Assay plates were incubated at room temperature for 1.5 h, before the reaction was stopped with the addition of buffer [comprising: 100 mM HEPES—pH7.5, 0.033% Brij-35 (Sigma Catalogue No. B4184), 0.22% Caliper Coating Reagent #3 (Caliper Life Sciences Catalogue No. 760050), 88 mM EDTA, 5% DMSO]. Stopped assay plates were then read using the Caliper LabChip® LC3000 (which uses microfludics to measure a shift in mobility between fluorescent labelled peptide and the FGFR1 kinase—phosphorylated form of this peptide).
In the assay, compounds were tested at a range of concentrations. […] Percentage inhibition at 1 uM, as expressed herein, is a calculated value based on the curve fit that was generated experimentally. From the fitted curve plot, the effect of compound at a concentration of 1 uM was calculated as a percentage inhibition. The IC50 is the concentration of compound, which inhibits FGFR1 kinase activity by 50% in the context of this assay. This value is calculated using a standard curve fitting software package Origin™.

FGFR1 active kinase, sequence (P11362 22-822): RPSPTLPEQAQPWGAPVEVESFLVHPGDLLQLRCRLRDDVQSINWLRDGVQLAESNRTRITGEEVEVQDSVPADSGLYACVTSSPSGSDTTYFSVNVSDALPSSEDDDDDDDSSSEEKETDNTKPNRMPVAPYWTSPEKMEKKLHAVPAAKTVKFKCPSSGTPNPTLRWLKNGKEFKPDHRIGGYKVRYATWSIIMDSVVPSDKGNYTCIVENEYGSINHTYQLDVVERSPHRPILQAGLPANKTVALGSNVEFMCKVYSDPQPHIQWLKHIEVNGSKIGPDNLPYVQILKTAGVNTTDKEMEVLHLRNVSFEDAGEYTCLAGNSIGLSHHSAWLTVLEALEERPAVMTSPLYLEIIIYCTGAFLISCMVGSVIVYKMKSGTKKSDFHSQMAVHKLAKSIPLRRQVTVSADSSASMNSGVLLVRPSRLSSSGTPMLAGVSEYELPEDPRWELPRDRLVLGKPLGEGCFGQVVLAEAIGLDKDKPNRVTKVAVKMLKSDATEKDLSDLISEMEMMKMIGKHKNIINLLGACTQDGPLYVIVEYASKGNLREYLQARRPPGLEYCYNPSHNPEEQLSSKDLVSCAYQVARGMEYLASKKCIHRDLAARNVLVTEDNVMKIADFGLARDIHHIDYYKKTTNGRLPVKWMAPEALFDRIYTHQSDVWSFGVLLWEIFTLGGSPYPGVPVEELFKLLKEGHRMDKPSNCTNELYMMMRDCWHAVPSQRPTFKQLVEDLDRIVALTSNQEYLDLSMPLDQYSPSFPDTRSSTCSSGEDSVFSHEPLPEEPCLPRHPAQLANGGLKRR

SMILES | pIC50
COc1cc(CCc2cc(NC(=O)c3ccc(N4CCN(C(C)CO)CC4)cc3)[nH]n2)cc(OC)c1 (stereo not shown) [Example 137, N-[5-[2-(3,5-dimethoxyphenyl)ethyl]-2H-pyrazol-3-yl]-4-[4-(1-hydroxypropan-2-yl)piperazin-1-yl]benzamide] | 9.24
CCN1CCCN(c2cnc(C(=O)Nc3cc(CCc4cc(OC)cc(OC)c4)n[nH]3)cn2)CC1 [Example 169, N-[5-[2-(3,5-dimethoxyphenyl)ethyl]-2H-pyrazol-3-yl]-5-(4-ethyl-1,4-diazepan-1-yl)pyrazine-2-carboxamide] | 8.57
COc1cc(CCc2cc(NC(=O)c3cnc(N4CCN5CCCCC5C4)cn3)[nH]n2)cc(OC)c1 (stereo not shown) [Example 105, 5-(1,3,4,6,7,8,9,9a-Octahydropyrido[2,1-c]pyrazin-2-yl)-N-[5-[2-(3,5-dimethoxyphenyl)ethyl]-2H-pyrazol-3-yl]pyrazine-2-carboxamide] | 6.89
CCN1CCN(c2ccc(C(=O)Nc3cc(CCc4cc(OC)cc(OC)c4)n[nH]3)cc2)CC1 [Example 180, N-[5-[2-(3,5-dimethoxyphenyl)ethyl]-2H-pyrazol-3-yl]-4-(4-ethylpiperazin-1-yl)benzamide] | 8.77
COc1cc(COc2cc(NC(=O)c3ccc(N4CCN(C5CC5)CC4)cc3)[nH]n2)cc(OC)c1 [Example 116, 4-(4-cyclopropylpiperazin-1-yl)-N-[5-[(3,5-dimethoxyphenyl)methoxy]-2H-pyrazol-3-yl]benzamide] | 9.03
COc1cc(CCc2cc(NC(=O)c3cnc(N4CCN[C@@H](C(C)C)C4)nc3)[nH]n2)cc(OC)c1 [Example 149, N-[5-[2-(3,5-dimethoxyphenyl)ethyl]-2H-pyrazol-3-yl]-2-[(3S)-3-propan-2-ylpiperazin-1-yl]pyrimidine-5-carboxamide] | 8.36
COc1cc(COc2cc(NC(=O)c3ccc(N4C[C@@H](C)N[C@@H](C)C4)cc3)[nH]n2)cc(OC)c1 [Example 100, N-[5-[(3,5-dimethoxyphenyl)methoxy]-2H-pyrazol-3-yl]-4-[(3R,5S)-3,5-dimethylpiperazin-1-yl]benzamide] | 8.85
C#CCN1CCC(c2ccc(C(=O)Nc3cc(CCc4cc(OC)cc(OC)c4)n[nH]3)cc2)CC1 [Example 146, N-[5-[2-(3,5-dimethoxyphenyl)ethyl]-2H-pyrazol-3-yl]-4-(1-prop-2-ynylpiperidin-4-yl)benzamide] | 8.96
COc1cc(COc2cc(NC(=O)c3ccc(N4CCN5CCCC5C4)cc3)[nH]n2)cc(OC)c1 (stereo not shown) [Example 104, 4-(3,4,6,7,8,8a-hexahydro-1H-pyrrolo[2,1-c]pyrazin-2-yl)-N-[5-[(3,5-dimethoxyphenyl)methoxy]-2H-pyrazol-3-yl]benzamide] | 8.89
COc1cc(COc2cc(NC(=O)c3cnc(N4CCN(C)C(C)C4)nc3)[nH]n2)cc(OC)c1 (stereo not shown) [Example 132, N-[5-[(3,5-dimethoxyphenyl)methoxy]-2H-pyrazol-3-yl]-2-(3,4-dimethylpiperazin-1-yl)pyrimidine-5-carboxamide] | 8.44
COc1cc(CCc2cc(NC(=O)c3ccc(N4CCCN(C5CC5)CC4)cc3)[nH]n2)cc(OC)c1 [Example 165, 4-(4-cyclopropyl-1,4-diazepan-1-yl)-N-[5-[2-(3,5-dimethoxyphenyl)ethyl]-2H-pyrazol-3-yl]benzamide] | 10.19
COc1cc(COc2cc(NC(=O)c3cnc(N4CCN5CCCC5C4)cn3)[nH]n2)cc(OC)c1 (stereo not shown) [Example 122, 5-(3,4,6,7,8,8a-Hexahydro-1H-pyrrolo[2,1-c]pyrazin-2-yl)-N-[5-[(3,5-dimethoxyphenyl)methoxy]-2H-pyrazol-3-yl]pyrazine-2-carboxamide] | 8.89
COc1cc(COc2cc(NC(=O)c3cnc(N4CCN(C5CC5)CC4)cn3)[nH]n2)cc(OC)c1 [Example 109, 5-(4-Cyclopropylpiperazin-1-yl)-N-[5-[(3,5-dimethoxyphenyl)methoxy]-2H-pyrazol-3-yl]pyrazine-2-carboxamide] | 8.52
COc1cc(COc2cc(NC(=O)c3cnc(N4CCN5CCCCC5C4)cn3)[nH]n2)cc(OC)c1 (stereo not shown) [Example 115, 5-(1,3,4,6,7,8,9,9a-Octahydropyrido[2,1-c]pyrazin-2-yl)-N-[5-[(3,5-dimethoxyphenyl)methoxy]-2H-pyrazol-3-yl]pyrazine-2-carboxamide] | 8.64
COc1cc(CCc2cc(NC(=O)c3ccc(C4CCN(C5CC5)CC4)cc3)[nH]n2)cc(OC)c1 [Example 99, 4-(1-Cyclopropylpiperidin-4-yl)-N-[5-[2-(3,5-dimethoxyphenyl)ethyl]-2H-pyrazol-3-yl]benzamide] | 9.04
COCCN1CCC(c2ccc(C(=O)Nc3cc(CCc4cc(OC)cc(OC)c4)n[nH]3)cc2)CC1 [Example 148, N-[5-[2-(3,5-dimethoxyphenyl)ethyl]-2H-pyrazol-3-yl]-4-[1-(2-methoxyethyl)piperidin-4-yl]benzamide] | 9.06
COc1cc(CCc2cc(NC(=O)c3ccc(N4CCCN(C(C)C)CC4)cc3)[nH]n2)cc(OC)c1 [Example 166, N-[5-[2-(3,5-dimethoxyphenyl)ethyl]-2H-pyrazol-3-yl]-4-(4-propan-2-yl-1,4-diazepan-1-yl)benzamide] | 9.15
COc1cc(CCc2cc(NC(=O)c3cnc(N4CCN5CCCC5C4)nc3)[nH]n2)cc(OC)c1 (stereo not shown) [Example 128, 2-(3,4,6,7,8,8a-hexahydro-1H-pyrrolo[2,1-c]pyrazin-2-yl)-N-[5-[2-(3,5-dimethoxyphenyl)ethyl]-2H-pyrazol-3-yl]pyrimidine-5-carboxamide] | 8.52
COc1cc(CCc2cc(NC(=O)c3ccc(N4C[C@@H](C)N(C)[C@@H](C)C4)cc3)[nH]n2)cc(OC)c1 [Example 155, N-[5-[2-(3,5-dimethoxyphenyl)ethyl]-2H-pyrazol-3-yl]-4-[(3R,5S)-3,4,5-trimethylpiperazin-1-yl]benzamide] | 9.35
COc1cc(CCc2cc(NC(=O)c3cnc(N4CCC(N(C)C)C4)cn3)[nH]n2)cc(OC)c1 (stereo not shown) [Example 157, N-[5-[2-(3,5-dimethoxyphenyl)ethyl]-2H-pyrazol-3-yl]-5-(3-dimethylaminopyrrolidin-1-yl)pyrazine-2-carboxamide] | 8.62
COc1cc(COc2cc(NC(=O)c3ccc(N4CCN(C5CCC5)CC4)cc3)[nH]n2)cc(OC)c1 [Example 118, 4-(4-Cyclobutylpiperazin-1-yl)-N-[5-[(3,5-dimethoxyphenyl)methoxy]-2H-pyrazol-3-yl]benzamide] | 8.96
C=CCN1CCCN(c2ncc(C(=O)Nc3cc(CCc4cc(OC)cc(OC)c4)n[nH]3)cn2)CC1 [Example 175, N-[5-[2-(3,5-dimethoxyphenyl)ethyl]-2H-pyrazol-3-yl]-2-(4-prop-2-enyl-1,4-diazepan-1-yl)pyrimidine-5-carboxamide] | 8.15
COc1cc(COc2cc(NC(=O)c3ccc(N4C[C@@H](C)N(C)[C@@H](C)C4)cc3)[nH]n2)cc(OC)c1 [Example 110, N-[5-[(3,5-dimethoxyphenyl)methoxy]-2H-pyrazol-3-yl]-4-[(3R,5S)-3,4,5-trimethylpiperazin-1-yl]benzamide] | 9.17
COc1cc(COc2cc(NC(=O)c3cnc(N4C[C@@H](C)N(C)[C@@H](C)C4)nc3)[nH]n2)cc(OC)c1 [Example 138, N-(3-(3,5-dimethoxybenzyloxy)-1H-pyrazol-5-yl)-2-((3R,5S)-3,4,5-trimethylpiperazin-1-yl)pyrimidine-5-carboxamide] | 8.59
CNC1CCN(c2cnc(C(=O)Nc3cc(CCc4cc(OC)cc(OC)c4)n[nH]3)cn2)C1 (stereo not shown) [Example 161, N-[5-[2-(3,5-dimethoxyphenyl)ethyl]-2H-pyrazol-3-yl]-5-(3-methylaminopyrrolidin-1-yl)pyrazine-2-carboxamide] | 8.52
COc1cc(CCc2cc(NC(=O)c3cnc(N4CCN5CCCC5C4)cn3)[nH]n2)cc(OC)c1 (stereo not shown) [Example 114, 5-(3,4,6,7,8,8a-hexahydro-1H-pyrrolo[2,1-c]pyrazin-2-yl)-N-[5-[2-(3,5-dimethoxyphenyl)ethyl]-2H-pyrazol-3-yl]pyrazine-2-carboxamide] | 8.80
COc1cc(CCc2cc(NC(=O)c3cnc(C4=CCN(C)CC4)cn3)[nH]n2)cc(OC)c1 [Example 153, N-[5-[2-(3,5-dimethoxyphenyl)ethyl]-2H-pyrazol-3-yl]-5-(1-methyl-3,6-dihydro-2H-pyridin-4-yl)pyrazine-2-carboxamide] | 9.09
CCN1CCC(c2ccc(C(=O)Nc3cc(CCc4cc(OC)cc(OC)c4)n[nH]3)cc2)CC1 [Example 159, N-[5-[2-(3,5-dimethoxyphenyl)ethyl]-2H-pyrazol-3-yl]-4-(1-ethylpiperidin-4-yl)benzamide] | 9.01
